Data from patent US20200375987A1, “METALLO-BETA-LACTAMASE INHIBITORS AND METHODS OF USE THEREOF” (priority 2018, published 2020).

What was measured:
[1] = target: NDM-1 (Klebsiella pneumoniae, UniProt C7C422); experiment: Enzyme activity: determination of IC50, fluorescence assay with CCF2-FA substrate (NDM-1); format: biochemical; conditions: 1 pM enzyme, 1.25 μM CCF2-FA, 2 hours at 25° C.; read-out: NDM1 IC50
Description: (§1) The Class B enzyme activities were measured in the presence of the test inhibitor in a fluorescence assay against a commercially available substrate consisting of a cephalosporin core linking 7-hydroxycoumarin to fluorescein (CCF2-FA). The enzyme (NDM-1, IMP-1 or VIM-1) and the substrate were diluted in 100 mM KH2PO4 buffer (pH 7) containing 0.005% Tween-20 and 10 μM ZnSO4. In the assay, the final concentration of enzyme was 1 pM, 2 pM and 30 pM for NDM-1, IMP-1 and VIM-1, respectively, and the final concentration of CCF2-FA was 1.25 μM. The test inhibitor was dissolved in dimethylsulfoxide and diluted 1:50 in the assay, resulting in a final concentration range of 20 μM to 0.00063 μM. In a 384-well microplate, the test inhibitor was incubated with the metallo-β-lactamase enzyme and the substrate for 2 hours at 25° C. Fluorescence at 460 nm following excitation at 405 nm was measured. The IC50 value was determined from semi-logarithmic plots of enzyme inhibition versus inhibitor concentration, with a curve generated using a 4-parameter fit.

[2] = target: IMP-1 (Serratia marcescens, UniProt P52699); experiment: Enzyme activity: determination of IC50, fluorescence assay with CCF2-FA substrate (IMP-1); format: biochemical; conditions: 2 pM enzyme, 1.25 μM CCF2-FA, 2 hours at 25° C.; read-out: IMP1 IC50
Chain of IMP-1 (P52699 19-246, looked up, species assumed): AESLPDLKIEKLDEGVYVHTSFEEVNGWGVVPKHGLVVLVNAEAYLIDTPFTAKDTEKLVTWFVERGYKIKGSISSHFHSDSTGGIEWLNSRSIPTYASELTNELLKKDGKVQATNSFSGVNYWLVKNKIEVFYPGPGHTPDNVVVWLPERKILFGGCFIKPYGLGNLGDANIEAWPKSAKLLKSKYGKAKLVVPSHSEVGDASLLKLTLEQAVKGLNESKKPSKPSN
Description: as §1

[3] = target: VIM-1 (Pseudomonas aeruginosa, UniProt A0A0F7KYQ8); experiment: Enzyme activity: determination of IC50, fluorescence assay with CCF2-FA substrate (VIM-1); format: biochemical; conditions: 30 pM enzyme, 1.25 μM CCF2-FA, 2 hours at 25° C.; read-out: VIM1 IC50
Description: as §1

[4] = target: VIM-2 (Escherichia coli, UniProt Q5U7L7); experiment: Enzyme activity: determination of IC50 (VIM-2); format: biochemical; conditions: read-out: VIM2 IC50
[5] = test system: Escherichia coli expressing NDM-1 (CLB30016); experiment: Antibiotic potentiation activity: synergistic concentration (MITC95) with imipenem; format: cell-based; conditions: imipenem 1 μg/mL; lowest concentration inhibiting 95% of growth; 35° C., 22-24 hours
Description: (§2) The bacterial strains tested included the clinical strains Escherichia coli expressing NDM-1 (CLB30005, CLB30016), Serratia marcescens expressing IMP-1 (CL5741), and Klebsiella pneumoniae expressing VIM-1 (IHMA599644). Inhibitor activity was measured in the presence and absence of imipenem in a 384-well microplate.
(§3) The clinical strains CLB30016, CL5741 and IHMA599644 were grown on trypticase soy agar containing 5% sheep's blood. The bacteria on agar plates were incubated at 35° C. with humidity overnight. The following day, individual colonies from each clinical strain were picked and resuspended in 5 mL saline to attain an OD600 of 0.14, 0.11, 0.15 and 0.13, for CLB30016, CL5741 and IHMA599644, respectively. These were further diluted 1:100 into 1.1× CAMHB and used to inoculate the test wells as described below.
(§4) Imipenem in 10 mM 3-(N-morpholino)propanesulfonic acid (MOPS, pH 7) was stored in single use aliquots at −80° C. […] On the day of the assay, 4 μl of antibiotic was added to 45 μl of bacteria followed by 1 μl of test compound and mixed by pipetting and with an orbital shaker. The concentration of antibiotic used in the assay was 1 μg/mL. Microplates were covered and incubated at 35° C. for 22 hours to 24 hours. At the end of the incubation, absorbance was determined using a spectrophotometer. The synergistic concentration of MBLI was determined by identifying the lowest concentration of test compound in the presence of a given concentration of antibiotic that was required to inhibit 95% of the growth of the bacteria. The results for Examples 1-209 are reported in Table 1, expressed as the concentration of compound that potentiated the action of antibiotic (imipenem) affecting 95% inhibition of bacterial growth (MITC95).

[6] = test system: Klebsiella pneumoniae expressing VIM-1 (IHMA599644); experiment: as above; format: cell-based; conditions: imipenem 1 μg/mL; lowest concentration inhibiting 95% of growth; 35° C., 22-24 hours
Description: as §2, §3, §4

[7] = test system: Serratia marcescens expressing IMP-1 (CL5741); experiment: as above; format: cell-based; conditions: imipenem 1 μg/mL; lowest concentration inhibiting 95% of growth; 35° C., 22-24 hours
Description: as §2, §3, §4

[8] = test system: P. aeruginosa MB9798 (efflux WT, IMP-1); experiment: Efflux: concentration of MBL inhibitor restoring susceptibility to imipenem (MITC95), efflux+ strain; format: cell-based, Pseudomonas aeruginosa; conditions: imipenem at 2 μg/mL in the presence of a class A, C, D serine β-lactamase inhibitor closely related to relebactam
Text: (§5) In order to assess the contribution of efflux to lack of whole cell inhibition of metallo-beta-lactamase inhibitors of formula I, tool strains were constructed. The strain background is Pseudomonas aeruginosa PAO1. A wild-type (MB5919) and an isogenic strain in which multiple efflux pumps have been disrupted genetically were used. The MBL IMP-1, obtained from a clinical isolate was introduced into the strain pair by the following process:
(§6) Plasmid DNA (encoding IMP-1) was extracted from CL 5673 (IMP-1, P. aeruginosa clinical strain) by standard techniques. The plasmid DNA was transformed into parental MB5919 (oprD+, efflux+, inducible AmpC) and MB5890 (oprD+, efflux−, inducible AmpC) isogenic strains by electroporation. These transformed strains were plated onto cation-adjusted Muller-Hinton agar plates containing ceftazidime at 32 μg/mL (MB5919) and 16 μg/mL (MB5890) to select for those cells in which the IMP-1-expressing plasmid was introduced successfully, resulting in resistance to ceftazidime. Agarose-gel electrophoresis of PCR product for IMP-1 from the successful transformants was used to compare to control and to the original strain from which the plasmid was obtained, confirming transfer of the IMP-1 gene (data not shown).
(§7) The strain set was then used as a pair to determine the effect of metallo-β-lactamase inhibitors of Formula Ion the MIC of imipenem and/or ceftazidime. A fixed concentration of antibiotic is included in standard microbroth MIC tests, usually at the CLSI breakpoint concentration. A fixed amount of a class A/C beta-lactamase inhibitor is also included to inhibit the resident Pseudomonas AmpC enzyme. A serial titration of the metallo-β-lactamase inhibitor was included and the concentration of metallo-β-lactamase inhibitor which restores susceptibility of the strain to the included antibiotic was recorded. That concentration of metallo-β-lactamase inhibitor was then compared between the two strains to determine the fold difference between the efflux+(MB9798) and efflux−(MB9799) strains, which indicates n the extent to which the MBLi is subject to efflux.

[9] = test system: P. aeruginosa MB9799 (efflux mutant, IMP-1); experiment: Efflux: concentration of MBL inhibitor restoring susceptibility to imipenem (MITC95), efflux− strain; format: cell-based, Pseudomonas aeruginosa; conditions: imipenem at 2 μg/mL in the presence of a class A, C, D serine β-lactamase inhibitor closely related to relebactam
Text: as §5, §6, §7

Chain of NDM-1 (C7C422 29-270, looked up, species assumed): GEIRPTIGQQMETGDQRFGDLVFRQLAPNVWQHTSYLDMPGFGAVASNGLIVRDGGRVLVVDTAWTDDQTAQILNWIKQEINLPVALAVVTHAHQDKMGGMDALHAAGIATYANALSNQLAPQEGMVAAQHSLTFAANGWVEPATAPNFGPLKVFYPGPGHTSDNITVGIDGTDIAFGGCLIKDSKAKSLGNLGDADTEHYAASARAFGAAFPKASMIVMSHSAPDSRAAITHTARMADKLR

SMILES | IC50 [1] | IC50 [2] | IC50 [3] | IC50 [4] | CLB30016 E.coli MITC95 NDM [5] | IHMA599644 K.pneumoniae MITC95 uM VIM [6] | CL5741 S.marcescens MITC95 uM IMP [7] | MB9798 MITC95 P. aeruginosa Efflux WT [8] | MB9799 MITC95 P. aeruginosa Efflux Mutant [9]
NS(=O)(=O)c1c(S(=O)(=O)N[C@@H]2CCNC2)ccc(N2CCCn3ncnc32)c1-c1nnn[nH]1 [Example 8, (R)-4-(6,7-dihydro-[1,2,4]triazolo[1,5-a]pyrimidin-4(5H)-yl)-N1-(pyrrolidin-3-yl)-3-(1H-tetrazol-5-yl)benzene-1,2-disulfonamide] | 0.47 nM | 6.63 nM | 0.2 nM | 1.09 nM | 3.13 µM | 12.50 µM | 6.25 µM | 3.13 µM | 6.25 µM
NS(=O)(=O)c1c(S(=O)(=O)N[C@@H]2CCNC2)ccc(N2CCn3ccnc3C2)c1-c1nnn[nH]1 [Example 9, (R)-4-(5,6-dihydroimidazo[1,2-a]pyrazin-7(8H)-yl)-N1-(pyrrolidin-3-yl)-3-(1H-tetrazol-5-yl)benzene-12-disulfonamide] | 0.48 nM | 2.17 nM | 0.1 nM | 0.49 nM | 0.39 µM | 1.56 µM | 0.20 µM | 1.56 µM | 0.78 µM
NS(=O)(=O)c1c(S(=O)(=O)N[C@@H]2CCNC2)ccc(N2Cc3cccnc3C2)c1-c1nnn[nH]1 [Example 22, 4-(5,7-dihydro-6H-pyrrolo[3,4-b]pyridin-6-yl)-N1-[(3R)-pyrrolidin-3-yl]-3-(1H-tetrazol-5-yl)benzene-1,2-disulfonamide] | 0.62 nM | 0.17 nM | 0.59 nM | 2.31 nM | 0.78 µM | 6.25 µM | 3.13 µM | 3.13 µM | 1.56 µM
NS(=O)(=O)c1c(S(=O)(=O)N[C@@H]2CCNC2)ccc(N2CCn3cncc3C2)c1-c1nn[nH]n1 [Example 2, (R)-4-(5,6-dihydroimidazo[1,5-a]pyrazin-7(8H)-yl)-N^1-(pyrrolidin-3-yl)-3-(2H-tetrazol-5-yl)benzene-1,2-disulfonamide] | 0.3 nM | 2.01 nM | 0.16 nM | 0.68 nM | 0.20 µM | 1.56 µM | 0.78 µM | 3.13 µM | 0.78 µM
NC[C@@H](O)CNS(=O)(=O)c1ccc(N2CCCn3ccnc32)c(-c2nnn[nH]2)c1S(N)(=O)=O [Example 16, (R)-N1-(3-amino-2-hydroxypropyl)-4-(6,7-dihydroimidazo[1,2-a]pyrimidin-8(5H)-yl)-3-(1H-tetrazol-5-yl)benzene-1,2-disulfonamide] | 1.2 nM | 5.93 nM | 0.38 nM | 1.01 nM | 0.10 µM | 1.56 µM | 0.39 µM | 3.13 µM | 0.78 µM
Nc1nc2c(s1)CN(c1ccc(S(=O)(=O)N[C@@H]3CCNC3)c(S(N)(=O)=O)c1-c1nnn[nH]1)CC2 [Example 29, 4-(2-amino-6,7-dihydro[1,3]thiazolo[5,4-c]pyridin-5(4H)-yl)-N1-[(3R)-pyrrolidin-3-yl]-3-(1H-tetrazol-5-yl)benzene-1,2-disulfonamide] | 6.28 nM | 7.11 nM | 8.27 nM | 32.8 nM | 1.56 µM | 12.50 µM | 1.56 µM | 25.00 µM | 0.78 µM
C[C@H](CN)NS(=O)(=O)c1ccc(N2CCCn3ccnc32)c(-c2nnn[nH]2)c1S(N)(=O)=O [Example 17, (R)-N1-(1-aminopropan-2-yl)-4-(6,7-dihydroimidazo[1,2-a]pyrimidin-8(5H)-yl)-3-(1H-tetrazol-5-yl)benzene-1,2-disulfonamide] | 0.36 nM | 2.17 nM | 0.22 nM | 1.11 nM | 0.78 µM | 1.56 µM | 0.78 µM | 1.56 µM | 0.78 µM
NS(=O)(=O)c1c(S(=O)(=O)N[C@@H]2CCNC2)ccc(N2CCCn3cnnc32)c1-c1nn[nH]n1 [Example 6, (R)-4-(6,7-dihydro-[1,2,4]triazolo[4,3-a]pyrimidin-8(5H)-yl)-N^1-(pyrrolidin-3-yl)-3-(2H-tetrazol-5-yl)benzene-1,2-disulfonamide] | 0.72 nM | 6.8 nM | 0.24 nM | 1.13 nM | 0.78 µM | 6.25 µM | 3.13 µM | 3.13 µM | 3.13 µM
NC[C@@H](O)CS(=O)(=O)c1ccc(N2CCCn3ccnc32)c(-c2nn[nH]n2)c1S(N)(=O)=O [Example 37, (R)-6-((3-amino-2-hydroxypropyl)sulfonyl)-3-(6,7-dihydroimidazo[1,2-a]pyrimidin-8(5H)-yl)-2-(2H-tetrazol-5-yl)benzenesulfonamide] | 4.31 nM | 5.6 nM | 2.22 nM | 4.44 nM | 0.20 µM | 1.56 µM | 0.78 µM | 3.13 µM | 0.78 µM
